This passage reports refractive index, speed of sound and mass density results from the NIST ThermoML archive (doi:10.1016/j.tca.2016.03.026).

A short description of data set [1]: refractive index (Na D-line) (dimensionless). As to conditions: 100 kPa, Liquid, Standard Abbe refractometry.
For data set [2] the following is noted: 100 kPa, Liquid; for speed of sound: Frequency=3 MHz, Sing-around technique in a fixed-path interferometer; for mass density: Vibrating tube method.
Data set [3] is described as follows: refractive index (Na D-line) (dimensionless); xn = mol fraction of the nth substance listed. The conditions noted are these: 100 kPa, Liquid, Standard Abbe refractometry, x2 = 0.
Data set [4] can be described thus: xn = mol fraction of the nth substance listed. As to conditions: 100 kPa, Liquid, x2 = 0; for speed of sound: Frequency=3 MHz, Sing-around technique in a fixed-path interferometer; for mass density: Vibrating tube method.

± gives the expanded uncertainty stated by the source.

What is called refractive index is the speed of light in vacuum divided by its phase velocity in the sample. Usually speed of sound stands for how fast a sound wave travels through the sample. A word on the mass density: it is mass per unit of volume. Consider `CCCCCCCC[n+]1ccn(C)c1.F[B-](F)(F)F` [1-methyl-3-octylimidazolium tetrafluoroborate], for which the refractive index in data set [1] (298.15 K) was found to be 1.43253 ± 0.0017; in data set [1] (308.15 K), 1.42984 ± 0.0017; in data set [1] (318.15 K), 1.42715 ± 0.0017. Also, the speed of sound in data set [2] (298.15 K) was determined as 1485.1 ± 2.3 m/s; in data set [2] (308.15 K) it was 1458.5 ± 2.3 m/s; in data set [2] (318.15 K), 1433.2 ± 2.3 m/s. The results for the mass density in data set [2] (298.15 K), in data set [2] (308.15 K) and in data set [2] (318.15 K) were 1105.02 ± 1.1 kg/m3, 1098.32 ± 1 kg/m3 and 1091.54 ± 1 kg/m3, respectively.

`CC(C)CO` [2-methyl-1-propanol]: the refractive index in data set [1] (298.15 K) amounted to 1.39408 ± 0.0016; in data set [1] (308.15 K), 1.38925 ± 0.0016; in data set [1] (318.15 K), 1.38444 ± 0.0016. Besides, the speed of sound in data set [2] (298.15 K) was 1189 ± 1.4 m/s; in data set [2] (308.15 K) it was 1155.9 ± 1.3 m/s; in data set [2] (318.15 K) it was 1118.6 ± 1.3 m/s. Moreover, the mass density is listed as 797.82 ± 0.22 kg/m3 in data set [2] (298.15 K), 790.63 ± 0.23 kg/m3 in data set [2] (308.15 K) and 781.98 ± 0.23 kg/m3 in data set [2] (318.15 K).

On to `CC(C)CO` [2-methyl-1-propanol] + CCCCCCCC[n+]1ccn(C)c1.F[B-](F)(F)F, for which the results for the refractive index in data set [3] (298.15 K), in data set [3] (308.15 K) and in data set [3] (318.15 K) were 1.39408 ± 0.0016, 1.38925 ± 0.0016 and 1.38444 ± 0.0016, respectively. Besides, the figures for the speed of sound in data set [4] (298.15 K), in data set [4] (308.15 K) and in data set [4] (318.15 K) were 1189 ± 1.4 m/s, 1155.9 ± 1.3 m/s and 1118.6 ± 1.3 m/s, respectively. Moreover, the mass density in data set [4] (298.15 K) is given as 797.82 ± 0.22 kg/m3; in data set [4] (308.15 K), 790.63 ± 0.23 kg/m3; in data set [4] (318.15 K), 781.98 ± 0.23 kg/m3.

Regarding `CC(C)(C)O` [2-methylpropan-2-ol], the refractive index in data set [1] (298.15 K) is recorded as 1.38488 ± 0.0016; in data set [1] (308.15 K), 1.37985 ± 0.0016; in data set [1] (318.15 K) it was 1.37402 ± 0.0016. For the same molecule, the speed of sound in data set [2] (298.15 K) came to 1121.4 ± 1.3 m/s; in data set [2] (308.15 K) it was 1082 ± 1.3 m/s; in data set [2] (318.15 K), 1038.2 ± 1.3 m/s. Further, the mass density came to 780.72 ± 0.23 kg/m3 in data set [2] (298.15 K), 770.21 ± 0.23 kg/m3 in data set [2] (308.15 K) and 759.5 ± 0.23 kg/m3 in data set [2] (318.15 K).

With `CC(C)(C)O` [2-methylpropan-2-ol] + CCCCCCCC[n+]1ccn(C)c1.F[B-](F)(F)F, the refractive index in data set [3] (298.15 K) came out at 1.38488 ± 0.0016; in data set [3] (308.15 K) it was 1.37985 ± 0.0016; in data set [3] (318.15 K), 1.37402 ± 0.0016. Further, the speed of sound in data set [4] (298.15 K) worked out at 1121.4 ± 1.3 m/s; in data set [4] (308.15 K), 1082 ± 1.3 m/s; in data set [4] (318.15 K) it was 1038.2 ± 1.3 m/s. The figures for the mass density in data set [4] (298.15 K), in data set [4] (308.15 K) and in data set [4] (318.15 K) were 780.72 ± 0.23 kg/m3, 770.21 ± 0.23 kg/m3 and 759.5 ± 0.23 kg/m3, respectively.

Take `CCCCO` [butan-1-ol]: the refractive index in data set [1] (298.15 K) is recorded as 1.39728 ± 0.0016; in data set [1] (308.15 K), 1.39324 ± 0.0016; in data set [1] (318.15 K), 1.38911 ± 0.0016. The speed of sound in data set [2] (298.15 K) stood at 1242.4 ± 1.2 m/s; in data set [2] (308.15 K), 1207.5 ± 1.2 m/s; in data set [2] (318.15 K) it was 1171.5 ± 1.2 m/s. The values for the mass density in data set [2] (298.15 K), in data set [2] (308.15 K) and in data set [2] (318.15 K) were 805.76 ± 0.2 kg/m3, 798.05 ± 0.2 kg/m3 and 790.21 ± 0.2 kg/m3, respectively.

With `CCCCO` [butan-1-ol] + CCCCCCCC[n+]1ccn(C)c1.F[B-](F)(F)F, the refractive index in data set [3] (298.15 K) amounted to 1.39728 ± 0.0016; in data set [3] (308.15 K), 1.39324 ± 0.0016; in data set [3] (318.15 K), 1.38911 ± 0.0016. The speed of sound in data set [4] (298.15 K) came to 1242.4 ± 1.2 m/s; in data set [4] (308.15 K), 1207.5 ± 1.2 m/s; in data set [4] (318.15 K), 1171.5 ± 1.2 m/s. Also, the mass density was 805.76 ± 0.2 kg/m3 in data set [4] (298.15 K), 798.05 ± 0.2 kg/m3 in data set [4] (308.15 K) and 790.21 ± 0.2 kg/m3 in data set [4] (318.15 K).
